System: arachidonic acid-induced ear swelling
Assay: topical arachidonic acid-induced ear swelling model in mice
Type: in vivo
Conditions: for % Inhibition of ear swelling: male ICR mice, topical application 30 min before and 15 min after arachidonic acid, measured at 90 minutes after arachidonic acid, indomethacin 14 mM (0.1 mg/20 μL), test compound 375 mM (1.1 mg/20 μL), relative to vehicle
Procedure: 4-Methylsulfonyl-2-butenenitrile, prepared from Example 1, was used in this experiment. The test compound, indomethacin (positive control), and vehicle were evaluated for anti-inflammatory activity in a topical arachidonic acid-induced ear swelling model in mice. Male ICR mice weighing 22±2 g were used and randomly divided; the test compound and vehicle control had 10 mice, and indomethacin had 5 mice. Arachidonic Acid (0.5 mg in 20 μl of acetone:ethanol/1:1) was applied topically to the anterior and posterior surfaces of the right ear of each mouse. Test substances and vehicle, as listed in Table 2 were similarly applied 30 min before and 15 min after arachidonic acid application. The thickness of the right ear and the left ear was measured and the difference calculated as an indication of the inflammation in the right ear. Ear swelling was measured by a Dyer model micrometer gauge at 60 and 90 minutes after arachidonic acid application as an index of inflammation. Percent inhibition was calculated according to the formula: Ic−It/Ic×100, where Ic and It refers to increase of ear thickness (mm) in control and treated mice, respectively. ANOVA and Dunnett's test were employed to ascertain significant difference between vehicle control and treated groups. Significance is set at P<0.05 level.

SMILES	% Inhibition of ear swelling [%]	anti-inflammatory activity in the mouse ear swelling model (in words) (applied topically, inflammation induced by arachidonic acid)
COc1ccc2c(c1)c(CC(=O)O)c(C)n2C(=O)c1ccc(Cl)cc1 [Indomethacin, indomethacin, reference compound]	58	
CS(=O)(=O)C/C=C/C#N [4-methylsulfonyl-2-butenenitrile]	22	anti-inflammatory

Source: patent publication US9770429B2, “4-methylsulfonyl-2-butenenitrile and its pharmaceutical use” (OLATEC THERAPEUTICS LLC, priority 2013, dated 2017)
